Results as given in patent US20050148069A1, “IGF-1 instructs multipotent adult CNS neural stem cells to an oligodendroglial lineage” (priority 2003, published 2005).

Test system: adult hippocampus-derived neural progenitor cells
Assay: in vitro differentiation analysis of neural progenitor cells (immunocytochemistry for lineage markers)
Format: cell-based, rat
Details: for differentiation of neural progenitor cells into oligodendrocytes: 500 ng/ml; for differentiation of neural progenitor cells into oligodendrocytes / GFAP+ astrocytes: 4 days; for rank order of potency for oligodendrocyte differentiation: different concentrations (20-1000 ng/ml); for GFAP+ astrocytes: each at 500 ng/ml
Method: The neural progenitor cells isolated from the hippocampus of female Fischer 344 used in this study have been characterized previously (Gage et al., 1995; Palmer et al., 1997). The whole brain-derived neural stem cells from PIO ICR mice were isolated and cultured according to the methods as described, with slight modifications. Cells were cultured as previously described (Gage et al., 1995; Ray et al., 1993). Cells between passages 10 and 20 were used for in vitro differentiation analyses. To induce differentiation, cells were plated into 4-well chamber slides at a density of 55,000-75,000 cells per well and were allowed to proliferate in N2-supplemented (Invitrogen) DMEM:F12 (Omega Scientific) medium containing 20 ng/ml FGF-2 (PeproTech, Inc.) for 24 hours. FGF-2 was then withdrawn and cells were subsequently treated with differentiation media. […] For IGF-induction experiments, cells were trypsinized, washed with 1× PBS, and plated into insulin-free N2 medium. […] In some cultures, BrdU (2.5 μM, Sigma) was added to label dividing cells, and Q-VD-OPh (2 μM, Enzyme Systems Products) was added to prevent apoptosis.
Cells were fixed with 4% paraformaldehyde, followed by immunocytochemical staining as described (Palmer et al., 1999). Labeled cells were visualized using a Nikon E800 upright microscope or a Nikon E600 inverted microscope (Nikon Inc.) and a Spot RT CCD camera (Diagnostic Instruments Inc.). 4′,6-diamidino-2-phenylindole (DAPI) was used to identify individual cells. Quantification of cell phenotypes was with StereoInvestigator (MicroBrightfield Inc.); for each marker, 500-1000 cells were sampled systematically from standardized fields at 40×magnification. For quantification of live/dead cells, images were taken of cultures live-stained with propidum iodide (1 μg/ml; Molecular Probes) and Hoescht 33342 (1 μg/ml; Sigma) at 10×magnification, and cells were counted using Image-Pro (Media Cybernetics). The following primary antibodies were used: rabbit anti-Tuj1 (1:7500;Covance), mouse anti-RIP (1:25-1:75; Hybridoma Bank); guinea pig anti-GFAP (1:500-1:2500; Advanced Immunochemical, Inc.); rabbit anti-MBP (1:500; Chemicon International Inc.), rat anti-BrdU (1:400; Accurate). Secondary antibodies were all from Jackson ImmunoResearch and used at 1:250 dilution. The detection of BrdU in cultured cells required treatment in 2 N HCL at 37° C. for 30 min (Palmer et al., 1999). All experiments were independently replicated at least 3 times.

| Compound | effects on proliferation or differentiation (2 μM Q-VD-OPh, 2-day cultures) | cell survival (DAPI-stained nuclei, persistence of cells) (2 μM Q-VD-OPh, 2-day cultures, insulin-free N2 medium) | RIP+ differentiation (2 μM Q-VD-OPh, no IGF-I, 2-day cultures, insulin-free N2 medium) | differentiation of neural progenitor cells into oligodendrocytes | rank order of potency for oligodendrocyte differentiation | GFAP+ astrocytes |
| --- | --- | --- | --- | --- | --- | --- |
| CC(C)[C@H](NC(=O)c1ccc2ccccc2n1)C(=O)N[C@@H](CC(=O)O)C(=O)COc1c(F)cccc1F [Q-VD-OPh, reference compound] | without obvious effects on proliferation or differentiation | promoted the majority of the cells to survive | approximately 2% | – | – | – |
| IGF-II: human recombinant IGF-II (R&D Systems) | – | – | – | could also promote the preferential differentiation of neural progenitor cells into oligodendrocytes | IGF-I>IGF-II>insulin | few to no GFAP+ astrocytes |
| insulin: insulin (Sigma) | – | – | – | could also promote the preferential differentiation of neural progenitor cells into oligodendrocytes | IGF-I>IGF-II>insulin | few to no GFAP+ astrocytes |
